Read-outs that look alike come from different tables or passages of the source.
Experiments:
[1] = test system: P. berghei ookinete development; settings: for % inhibition, Replicate A / % inhibition, Replicate B: primary screen at 1 μM
[2] = test system: 3D7-strain P. falciparum asexual parasites; assay: P. falciparum asexual growth inhibition assay (Pf GIA); type: cell-based, Plasmodium falciparum; settings: dose response confirmation; read-out: Pf asexual growth inhibition assays IC50
Outline: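 LDH readout: absorbance at 650 nm after 10 min at room temperature with lactate/APAD/NBT/diaphorase mix on thawed plates. Cultures (0.25% parasitemia, 2% hematocrit) were treated 72 h at 37°C in low-oxygen gas. Inhibition was normalised to 50 μM chloroquine and DMSO; n=3 biological replicates.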

HepG2 cells = assay: HepG2 cytotoxicity assay; settings: for IC50: read-out: HepG2 cytotoxicity assay IC50, dose response confirmation; for Pb ODA (this manuscript) HepG2 cytoxicity: HepG2 cytotoxicity listed with the Pb ODA data set (this manuscript)
Outline: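 Percent inhibition derived from fluorescent viability readout, normalised to DMSO (negative) and 50 μM doxorubicin (positive). Compound incubation lasted 48 h at 37°C, 5% CO2, with 2,500 HepG2 cells/well in MEM plus 10% FBS and 1% NEAA.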

[3] = read-out: Pb ODA IC50, this manuscript
[4] = read-out: Pb Ookinete development assay IC50, dose response confirmation
[5] = HepG2 values of the three screens unified
[6] = unified HepG2 value across the three screens

Compound	Is compound selective in assay? Pb ODA active? ([1]; 1: YES, 0: NO)	% inhibition, Replicate A [1]	% inhibition, Replicate B [1]	IC50 [1, 3]	IC50 [1, 4]	IC50 [2]	HepG2 cytoxicity (Pb ODA, this manuscript) (HepG2 cells)	Unified cytotox (HepG2 cells; [5])	IC50 (HepG2 cells)	Unified cytotox (HepG2 cells; [6])	Is compound selective in assay? Pb ODA active? [1]	IC50 ([1]; read-out: Pb ODA (this manuscript) IC50, P. berghei ookinete development assay, this manuscript)	Pb ODA (this manuscript) HepG2 cytoxicity (HepG2 cells)
COc1ccc2nccc([C@@H](O)CN3CCC(NC(=O)/C=C/c4c[nH]c5c(C)cccc45)CC3)c2c1 [TCMDC-141000]	1 (1: YES)	72.27%	60.86%	1900 nM	1900 nM	433 nM	51.29 µM	51.29 µM	51300 nM				
CN(C)CCN(C)C(=O)c1cc(-c2ccncc2)c(-c2ccc(Cl)c(O)c2)o1.Cl [TCMDC-141393]	1 (1: YES)	35.76%	53.63%	1750 nM	1750 nM	2490 nM			53700 nM	53.70 µM			
COc1ccc2nccc(NC(=O)C3(O)CCC(NCc4ccc5c(c4)NCCS5)CC3)c2n1.Cl (centres unmarked) [TCMDC-141406]		91.89%	114.20%		347 nM	1040 nM			24300 nM		1 (key: 1: YES; 0: NO)	350 nM	24.27 µM
CCN(CC)CCCNc1nccc(N(C)c2ccc(NC(=O)Nc3cc(C(F)(F)F)ccc3F)cc2)n1.O=C(O)C(F)(F)F [TCMDC-141634]	0 (0: NO)	55.58%	13.78%	9020 nM	9020 nM	811 nM			2750 nM	2.75 µM			
COc1ccc2ncc(Cl)c(CCN3CCC(NCc4ccc5c(n4)NC(=O)CS5)CC3)c2c1.Cl [TCMDC-141807]	1 (1: YES)	68.31%	67.95%	1340 nM	1340 nM	379 nM	15.49 µM	15.49 µM	15500 nM				
COc1ccc2ncc(Cl)c(CCN3CCC(NCc4ccc5c(n4)NC(=O)CO5)CC3)c2c1.Cl [TCMDC-141808]		43.21%	70.93%		1220 nM	14 nM			1290 nM		0 (key: 1: YES; 0: NO)		1.29 µM
COc1ccc2nccc(N3CCC(CCNCc4ccc5c(n4)NC(=O)CS5)CC3)c2n1.Cl [TCMDC-141944]	0 (0: NO)	58.34%	37.24%	8880 nM	8880 nM	160 nM	14.79 µM	14.79 µM	14800 nM				
COc1c(F)ccc2ncc(Cl)c(CCN3CCC(NCc4ccc5c(n4)NC(=O)CS5)CC3)c12.Cl [TCMDC-141955]	1 (1: YES)	54.74%	63.10%	1900 nM	1900 nM	1190 nM	23.99 µM	23.99 µM	24000 nM				
Cl.O=C1CSc2ccc(CNC3CCN(CCc4c(Cl)cnc5ccc(Cl)cc45)CC3)nc2N1 [TCMDC-141959]	0 (0: NO)	64.42%	30.41%	4220 nM	4220 nM	320 nM	17.78 µM	17.78 µM	17800 nM				
Cl.O=C1CSc2ccc(CNC3CCN(CCc4c(Cl)cnc5ccc(F)cc45)CC3)nc2N1 [TCMDC-141960]	1 (1: YES)	68.86%	55.86%	3040 nM	3040 nM	207 nM	38.90 µM	38.90 µM	38900 nM				
Nc1nc(N)c2c(ccc3c2ccn3Cc2ccccc2)n1 [TCMDC-141977]	0 (0: NO)	47.17%	65.82%	290 nM	286 nM	1 nM	0.15 µM	0.15 µM	150 nM				
CCOc1ccc2[nH]c(C)cc(=NN=Cc3cccnc3)c2c1 [TCMDC-142047]	0 (0: NO)	59.45%	48.70%	4520 nM	4520 nM	139 nM			15100 nM	15.14 µM			
CC1=CC(=O)[C@@H](O)[C@]2(C)[C@H]3[C@@]4(O)OC[C@@]35[C@@H](C[C@@H]12)OC(=O)C[C@H]5[C@@H](C)[C@H]4O [TCMDC-142261]	1 (1: YES)	102.04%	101.98%	54.9 nM	55 nM	109 nM			26300 nM	26.30 µM			
